Molecules are shown by their SMILES. ≈ marks a conversion by molar mass, not a printed value. Calls of active or inactive are those of the source.

The test system of one assay is Trichophyton rubrum. Put plainly: Antifungal activity against Trichophyton rubrum assessed as reduction in microbial growth after 48 hrs by microdilution method. It counts as functional.
Assay [1] relates to Candida albicans. Put plainly: Antibiofilm activity against Candida albicans ATCC 10231 at concentration of 0.25 MIC by XTT assay. It counts as functional, organism-based. In general terms: Tetrazolium dyes change colour on reduction, which living cells bring about.
For assay [2], the system named is Pichia kudriavzevii. Put plainly: Antifungal activity against Candida krusei ATCC 6258 assessed as reduction in microbial growth. It counts as functional.
Assay [3] deals with Candida albicans. Put plainly: Antifungal activity against Candida albicans ATCC 10231 assessed as reduction in microbial growth. It counts as functional.
For assay [4], the system named is Candida parapsilosis. Put plainly: Antifungal activity against Candida parapsilosis ATCC 22019 assessed as reduction in microbial growth. In kind it is functional. As to conditions: Lodderomyces parapsilosis.
Assay [5] relates to Candida albicans. Put plainly: Fungicidal activity against Candida albicans ATCC 10231 assessed as bacterial killing at concentration of 2 MIC after 5 hrs relative to control. It counts as functional.
Assay [6] relates to Candida albicans. Put plainly: Fungicidal activity against Candida albicans ATCC 10231 assessed as bacterial killing at concentration of 2 MIC after 1 hrs relative to control. In kind it is functional.
Assay [7] relates to Nakaseomyces glabratus. In words: Antifungal activity against Candida glabrata ATCC 90030 assessed as reduction in microbial growth. In kind it is functional.
Assay [8] relates to Candida albicans. Put plainly: Fungicidal activity against Candida albicans ATCC 10231 assessed as bacterial killing at concentration of 0.25 MIC after 5 hrs relative to control. In kind it is functional.
The test system of assay [9] is Nakaseomyces glabratus. Put plainly: Fungicidal activity against Candida glabrata DSM 11226. It counts as functional.
The test system of assay [10] is Saccharomyces cerevisiae. Put plainly: Antifungal activity against Saccharomyces cerevisiae ATCC 9763 assessed as reduction in microbial growth. In kind it is functional.
For assay [11], the system named is Candida albicans. Put plainly: Fungicidal activity against Candida albicans ATCC 10231 assessed as bacterial killing at concentration of MIC after 5 hrs relative to control. It counts as functional.
For assay [12], the system named is Candida albicans. In words: Fungicidal activity against Candida albicans ATCC 10231 assessed as bacterial killing at concentration of 4 MIC after 1 hrs relative to control. It counts as functional.
The test system of assay [13] is Pichia kudriavzevii. In words: Fungicidal activity against Candida krusei DSM 6128. In kind it is functional.
The nature of assay [14]: Ratio of MFC for fungicidal activity against Saccharomyces cerevisiae ATCC 9763 to MIC for antifungal activity against Saccharomyces cerevisiae ATCC 9763. It counts as functional.
The test system of assay [15] is Candida albicans. Put plainly: Fungicidal activity against Candida albicans ATCC 10231. It counts as functional.
For assay [16], the system named is Saccharomyces cerevisiae. In words: Fungicidal activity against Saccharomyces cerevisiae ATCC 9763. It counts as functional.
Assay [17] deals with Candida parapsilosis. Put plainly: Fungicidal activity against Candida parapsilosis DSM 5784. In kind it is functional. Particulars: Lodderomyces parapsilosis.
In assay [18] the test system is Candida albicans. Put plainly: Growth inhibition of Candida albicans ATCC 10231 assessed as reduction in yeast to mycelium formation by measuring reduction in hyphal growth at 0.25 MIC after 3 hrs by light microscopic method relative to control. In kind it is functional.
Another assay relates to Candida. In words: Antifungal activity against Candida. In kind it is functional.
The subject of assay [19] is Candida albicans. In words: Antibiofilm activity against Candida albicans at 256 ug/ml relative to control. In kind it is functional.
The test system of another assay is Escherichia coli. Put plainly: Antibacterial activity against Escherichia coli ATCC 10536 assessed as reduction in microbial growth incubated for 48 hrs by photometric method. It counts as functional.
Assay [20] relates to Candida albicans. Put plainly: Growth inhibition of Candida albicans ATCC 10231 assessed as reduction in yeast to mycelium formation by measuring reduction in hyphal growth at concentration of 0.25 MIC after 3 hrs in YPG medium by light microscopic method relative to control. It counts as functional, organism-based.
In assay [21] the test system is Candida albicans. In words: Antifungal activity against fluconazole-resistant Candida albicans F5 assessed as reduction in microbial growth. It counts as functional.
Assay [22] has as its system Candida albicans. In words: Growth inhibition of Candida albicans ATCC 10231 assessed as reduction in yeast to mycelium formation by measuring reduction in hyphal growth at concentration of 0.25 MIC after 3 hrs in G1cNAc medium by light microscopic method relative to control. In kind it is functional, organism-based.
The subject of assay [23] is Saccharomyces cerevisiae. In words: Inhibition of Saccharomyces cerevisiae DNA topoisomerase 2 assessed as decrease in relaxation of supercoiled DNA using supercoiled pBR322 plasmid DNA at 1 to 200 uM gel electrophoresis method. Particulars: dose 1-200 µM.
Assay [24] relates to Candida albicans. Put plainly: Antifungal activity against fluconazole-sensitive Candida albicans B3 assessed as reduction in microbial growth. It counts as functional.
In another assay the test system is Staphylococcus aureus. In words: Antibacterial activity against Staphylococcus aureus ATCC 9144 assessed as reduction in microbial growth incubated for 48 hrs by photometric method. It counts as functional.
In assay [25] the test system is Candida albicans. Put plainly: Antifungal activity against fluconazole-resistant Candida albicans B4 assessed as reduction in microbial growth. It counts as functional.
Assay [26] relates to Candida albicans. Put plainly: Antifungal activity against fluconazole-sensitive Candida albicans Gu4 assessed as reduction in microbial growth. In kind it is functional.
Assay [27] relates to Candida albicans. Put plainly: Antifungal activity against Candida albicans CNCM 1180-79 assessed as reduction in microbial growth incubated for 72 hrs by photometric method. In kind it is functional.
In assay [28] the test system is Candida albicans. Put plainly: Antifungal activity against fluconazole-resistant Candida albicans Gu5 assessed as reduction in microbial growth. It counts as functional.
In assay [29] the test system is Candida albicans. Put plainly: Antifungal activity against fluconazole-sensitive Candida albicans F2 assessed as reduction in microbial growth. In kind it is functional.
Assay [30] concerns Candida albicans. Put plainly: Fungicidal activity against Candida albicans ATCC 10231 assessed as bacterial killing at concentration of 4 MIC after 5 hrs relative to control. It counts as functional.
Assay [31] concerns Candida albicans. In words: Fungicidal activity against Candida albicans ATCC 10231 assessed as bacterial killing at concentration of 0.5 MIC after 5 hrs relative to control. It counts as functional.
Assay [32] concerns Candida albicans. In words: Fungicidal activity against Candida albicans ATCC 10231 assessed as bacterial killing after 5 hrs. In kind it is functional, organism-based.
Assay [33] deals with Candida albicans. Put plainly: Fungicidal activity against Candida albicans ATCC 10231 assessed as bacterial killing at concentration of 0.25 to 4 MIC after 1 hrs relative to control. In kind it is functional.

`O=c1c2cc(O)c(O)c(O)c2[nH]c2cc(O)cc(O)c12`: the MIC in the assay with Trichophyton rubrum turned out to be 15.6 mg/L.
With `C[C@@H]1[C@H](O)[C@@H](C)/C=C/C=C/C=C/C=C/C=C/C=C/C=C/[C@H](O[C@@H]2O[C@H](C)[C@@H](O)[C@H](N)[C@@H]2O)C[C@@H]2O[C@](O)(C[C@@H](O)C[C@@H](O)[C@H](O)CC[C@@H](O)C[C@@H](O)CC(=O)O[C@H]1C)C[C@H](O)[C@H]2C(=O)O` [AMPHOTERICIN B], in the assay on Candida albicans [1], the outcome was Active. Further, the MIC90 stood at 1 mg/L with Pichia kudriavzevii [2]; 0.5 mg/L in the assay with Candida albicans [3]; 1 mg/L with Candida parapsilosis [4]; 1 mg/L with Nakaseomyces glabratus [7]; 0.5 mg/L in the assay on Saccharomyces cerevisiae [10]. Besides, the Activity is 100% in the assay on Candida albicans [5]; 100% with Candida albicans [6]; 70% in the assay on Candida albicans [8]; 100% with Candida albicans [11]; 100% with Candida albicans [12]. Also, the minimum fungicidal concentration (MFC) with Nakaseomyces glabratus [9], against Pichia kudriavzevii [13], in the assay with Candida albicans [15], against Saccharomyces cerevisiae [16] and against Candida parapsilosis [17] was 2 mg/L (≈ 2.16 µM) throughout. In addition, the Ratio entry in assay [14] is listed as “>=1”. Moreover, the “growth inhibition (GI)” value in the assay on Candida albicans [18] stood at 100%.
Turning to `COc1cc([C@@H]2c3cc4c(cc3[C@@H](O[C@@H]3O[C@@H]5CO[C@@H](C)O[C@H]5[C@H](O)[C@H]3O)[C@H]3COC(=O)[C@H]23)OCO4)cc(OC)c1O` [ETOPOSIDE], the MIC in the assay on Candida was found to be 50 mg/L (≈ 85 µM).
The compound `CCN(CC)CCCC(C)Nc1c2ccc(Cl)cc2nc2ccc(OC)cc12` (configuration not stated) [QUINACRINE] yielded an Activity with Candida albicans [19] of 50%.
Regarding `O=[N+]([O-])c1cccc2nc3ccccc3c(NCCO)c12`, in the assay on Candida albicans [1], the outcome was Active. Moreover, the MIC90 with Pichia kudriavzevii [2] was 8 mg/L; in the assay on Candida albicans [3] it was 2 mg/L; in the assay with Candida parapsilosis [4], 32 mg/L; with Candida albicans [21] it was greater than 64 mg/L; with Candida albicans [24], 2 mg/L; with Nakaseomyces glabratus [7], 16 mg/L. For the same compound, the MIC90 with Candida albicans [25] was greater than 64 mg/L; with Saccharomyces cerevisiae [10], 0.25 mg/L; with Candida albicans [26], 4 mg/L; in the assay on Candida albicans [28], 32 mg/L; with Candida albicans [29], 4 mg/L. Besides, the MIC in the assay on Escherichia coli, in the assay on Staphylococcus aureus and in the assay on Candida albicans [27] was 50 mg/L in each case. Moreover, the “growth inhibition (GI)” value in the assay on Candida albicans [20], in the assay with Candida albicans [22] and in the assay with Candida albicans [18] was “inactive” in each case. Also, the inhibition result in the assay with Saccharomyces cerevisiae [23] is “inactive”. Moreover, the minimum fungicidal concentration (MFC) was 32 mg/L (≈ 113 µM) in the assay with Nakaseomyces glabratus [9]; 32 mg/L (≈ 113 µM) in the assay on Pichia kudriavzevii [13]; 4 mg/L (≈ 14.1 µM) with Candida albicans [15]; 0.25 mg/L (≈ 0.882 µM) in the assay with Saccharomyces cerevisiae [16]; 64 mg/L (≈ 226 µM) in the assay on Candida parapsilosis [17]. In addition, the Ratio entry in assay [14] was “>=1”.
On to `Cc1ccc([N+](=O)[O-])c2c(NCCO)c3ccccc3nc12`, for which, in the assay with Candida albicans [1], the result was Active. The Activity in the assay with Candida albicans [30] was 80%; in the assay on Candida albicans [5] it was 70%; in the assay with Candida albicans [31] it was 5%; in the assay with Candida albicans [32], “Dose-dependent effect”; in the assay with Candida albicans [8], 5%; in the assay with Candida albicans [11], 60%. In the assay on Candida albicans [33], the Activity is 10%. Besides, the MIC90 is 8 mg/L in the assay with Pichia kudriavzevii [2]; 1 mg/L in the assay with Candida albicans [3]; 64 mg/L in the assay with Candida parapsilosis [4]; greater than 64 mg/L with Candida albicans [21]; 4 mg/L in the assay with Candida albicans [24]; 8 mg/L in the assay on Nakaseomyces glabratus [7]. Besides, the MIC90 with Candida albicans [25] was greater than 64 mg/L; in the assay with Saccharomyces cerevisiae [10], 0.5 mg/L; in the assay with Candida albicans [26], 4 mg/L; in the assay with Candida albicans [28], 32 mg/L; in the assay with Candida albicans [29], 2 mg/L. The MIC with Escherichia coli, in the assay with Staphylococcus aureus and in the assay with Candida albicans [27] was 50 mg/L throughout. Besides, the “growth inhibition (GI)” value with Candida albicans [20], in the assay on Candida albicans [22] and with Candida albicans [18] was “inactive” throughout. Moreover, the inhibition result with Saccharomyces cerevisiae [23] was “inactive”. In addition, the MFC is greater than 64 mg/L against Nakaseomyces glabratus [9], 16 mg/L (≈ 53.8 µM) against Pichia kudriavzevii [13], 2 mg/L (≈ 6.73 µM) in the assay with Candida albicans [15] and 0.5 mg/L (≈ 1.68 µM) in the assay with Saccharomyces cerevisiae [16]. For the same compound, the Ratio result in [14] was “>=1”.

Usually MIC stands for the lowest concentration that inhibits growth of the organism. In general, MIC90 refers to an inhibitory concentration at the 90% level, which refers to growth in some studies and to a panel of isolates in others. In general, MFC refers to the smallest concentration meeting the test's criterion for killing the fungus.

The record behind these values is ChEMBL document CHEMBL4715897, “A new 1-nitro-9-aminoacridine derivative targeting yeast topoisomerase II able to overcome fluconazole-resistance” (2021).
